Marks after values point to notes of the source that are not given here.
Key:
tyrosinase = tyrosinase (Homo sapiens, UniProt P14679); settings: Briganti et al. 2003; cited from earlier work
[1] = system: UVB-induced hyperpigmentation; assay: Melanin index (mexameter), brown guinea pig; type: in vivo; settings: 2% sample topical
Description: Three brown guinea pigs weighing 450-550 g were purchased from Oriental Yeast Co. Ltd. (OYC; Japan). The animals were accustomed to the test environment for 7 days. The animals were housed in individual cages under the environment of 22±1° C. and 50±5% relative humidity with 12-hour alternate dark/light cycles. Feed and water were given ad libitum.
UVB-induced hyperpigmentation was elicited on the back of the brown guinea pig according to the method of Choi et al. (2004). After anesthetizing the guinea pig with ketamine hydrochloride (100 mg/kg BW), 24 separate areas (φ 12 mm) on the skin of the back was exposed to UVB radiation (302-nm sunlamp). The areas were exposed to UVB of 500 mJ/cm^2 for 3 consecutive weeks, once a week. That is, a total of 1,500 mJ/cm^2 of UVB was radiated.
On day 10 after the final UVB radiation, 30 μL (1.06 mg/cm^2/day) of 2% HQ, EGCG, GT, WT or BT was topically applied for 4 weeks to the hyperpigmented areas (9 areas per each) using a micropipette, twice a day, and 4 days a week. Saline was used as control, and propylene glycol:ethanol:water (5:3:2) was used as vehicle control.
Before and after the topical application of the test sample, change in melanin pigmentation was measured 3 times in a non-invasive manner using a mexameter, once a week. The degree of pigmentation was analyzed by averaging the measured values.

[2] = system: melanin pigmentation in the epithelium; assay: Fontana-Masson's silver staining, melanin-pigmented area; type: in vivo, brown guinea pig; settings: week 4; 2% sample
Description: In order to observe the morphological change of the skin tissue using an optical microscope, the extracted skin tissue was fixed in a 10% neutral formalin solution for 12 hours and washed with flowing water. After dehydrating in 70, 80, 95 and 100% ethanol followed by washing with xylene, the tissue was embedded in paraffin and 4 μm-thick samples were prepared using a microtome.
Paraffin was removed from the sample using xylene. After staining the sample for 60 minutes in silver nitrate solution at 56° C. according to the Masson's method (1928), followed by washing, color-toning 0.2% gold chloride solution and washing again, the sample was kept in 5% sodium thiosulfate solution for 5 minutes. Subsequently, after washing the sample once again, followed by counterstaining in nuclear fast red solution, dehydration in 95%, 95%, 100% and 100% alcohol and washing with xylene, the sample was put in Canada balsam for microscopic observation. The percentage of the melanin-pigmented area was calculated using an image analysis software.

hyperpigmentation = settings: Ortonne and Passeron 2005; cited from earlier work
gp100 protein = assay: Immunohistochemical HMB-45 staining (gp100); type: in vivo, brown guinea pig; settings: week 4; 2% sample
Description: (§1) After dehydration, followed by washing with xylene and embedding in paraffin, 4 μm-thick samples were prepared. The sample was adhered on a coating slide and stained using the BenchMark XT automated immunostainer (Ventana Medical Systems, USA) after removing paraffin. […] Following reaction with S-100 and HMB-45 primary antibodies diluted to 1:100, the sample was washed with reaction buffer, reacted with biotin for 20 minutes, and then reacted with streptavidin for 25 minutes. After coloring with diaminobenzidine (DAB) using the Ventana detection kit), the sample was stained for observation using an optical microscope.

[3] = Electron donating ability (DPPH radical scavenging, Blois' method); settings: 800 μg/mL
Description: DPPH radical scavenging effect was measuring according to the Blois' method (1958). […] After adding 1 mL of the test sample in a test tube, 4×10^−4 M DPPH (4 mL) was added. The resulting mixture was shaken vigorously, allowed to stand in warm water of 60° C. for 10 seconds, and absorbance was measured at 525 nm. BHT was used as the positive control group. Then, free radical scavenging activity of each solution was calculated as “% inhibition” according to the following equation: % inhibition=[1−(Asample/Ablank)]×100, wherein Ab1ank is the absorbance of the control group (excluding the test sample) and Asample is the absorbance of the test compound.

S-100 protein = assay: Immunohistochemical S-100 staining; type: in vivo, brown guinea pig; settings: week 4; 2% sample
Description: as §1

UVB-irradiated skin [4] = assay: Transepidermal water loss (TEWL), SKH-1 hairless mouse; type: in vivo; settings: for TEWL: RA 0.01%, GT/WT/BT 2%
Description: (§2) 7-week-old SKH-1 hairless mice was purchased from Charles River (Japan). The animals were accustomed to the test environment for 1 week. The animals were housed in individual cages under the environment of 22±1° C. and 50±5% relative humidity with 12-hour alternate dark/light cycles. Feed and water were given ad libitum. The animals were grouped into 7 groups as follows, with 7 mice per each:
(§3) The mouse was subjected to UVB radiation (302 nm sunlamp) on the back for […], 3 times a week. The radiation amount was 1 minimal erythemal dose (MED: 60 mJ/cm^2) on the 1st week, 2 MED (120 mJ/cm^2) on the 2nd week, 3 MED (180 mJ/cm^2) on the 3rd week, and 4 MED (240 mJ/cm^2) on the 4th to 12th weeks. The radiation with 4 MED was carried out once a week during the test period.
(§4) After inducing wrinkle formation, 200 μL of saline or the sample was applied for 4 weeks, 5 times a week (2%: 0.26 g/kg BW/day). RA was applied together with polyethylene glycol at a concentration of 0.01% for 4 weeks, 5 times a week, twice a day, with 200 μL per each.
(§5) Skin erythema index, water content and transepidermal water loss (TEWL) were measured in a non-invasive manner using a mexameter, a corneometer and a tewameter, once a week during the test period.

MMP-3 = assay: RT-PCR, MMP-3 mRNA in skin tissue; type: in vivo, SKH-1 hairless mouse; settings: RA 0.01%, GT/WT/BT 2%
Description: 50 mg of the sample from the mouse back skin kept at low temperature was homogenized with 1 mL of Trizol. The homogenized sample was incubated at room temperature for 5 minutes after adding 200 μL of chloroform, and centrifuged at 15,000 rpm and 4° C. for 10 minutes. After collecting and transferring the supernatant to a fresh tube and adding 500 μL of isopropyl alcohol, the sample was centrifuged at 4° C. and 15,000 rpm for 15 minutes. The resulting RNA pellet was washed with 1 mL of 70% ethanol and centrifuged at 4° C. and 15,000 rpm for 15 minutes. The RNA pellet finally obtained by removing the supernatant was diluted with diethylpyrocarbonate (DEPC) and quantitated with 1.8<optical density (OD; A260/A280)<2.0 using a white light/UV transilluminator. cDNA was synthesized from total RNA at a concentration of 0.1-1 μg/μL using the Cycle Script RT PreMix (dT20) kit. The cDNA synthesis was performed by 12 cycles of 1 minute at 30° C. and 4 minutes at 50° C. in 205 μL of DEPC, and the sample was heated at 95° C. for 5 minutes. Polymerase chain reaction (PCR) was carried out in 15.2 μL of sterilized water containing 2 μL of template and […] of primer using the Accupower™ PCR PreMix kit. The reaction was carried out for 35 cycles. […] DNA band density was calculated using the Kodak Gel Logic 100 image analysis system.

[5] = Organ weight (spleen, thymus); type: in vivo, SKH-1 hairless mouse
Description: After extracting the skin, a portion of the skin was fixed in 10% neutral-buffered formalin solution for histological analysis and the remainder was kept in a refrigerator (−80° C.) for analysis of MMPs. Thymus and spleen extracts were washed with saline and weighed on an electronic scale after removing water with filer paper.

UVB-induced wrinkles = assay: Measurement of wrinkles (skin replica, Visioline); type: in vivo, SKH-1 hairless mouse; settings: RA 0.01%, GT/WT/BT 2%
Description: as §2, §3, §4
Skin replica was prepared from the back skin of the hairless mouse using the Silflo impression material (Flexico, England). The roughness of the skin was assessed using Visioline. Total wrinkle area (mm^2) was calculated.

UVB-irradiated skin [6] = assay: Skin water content (corneometer), SKH-1 hairless mouse; type: in vivo; settings: for water content of the skin: RA 0.01%, GT/WT/BT 2%
Description: as §2, §3, §4, §5

[7] = Water and feed intake, feed efficiency and body weight; type: in vivo, SKH-1 hairless mouse
Description: Water and feed intake of the test animal was measured once a week. Body weight was measured between 09:00 and 10:00 in the morning, once a week during the test period.

UVB-irradiated skin [8] = assay: Skin erythema index, SKH-1 hairless mouse; type: in vivo; settings: for skin erythema index: RA 0.01%, GT/WT/BT 2%
Description: as §2, §3, §4, §5

Hematological analysis = type: in vivo, SKH-1 hairless mouse; settings: RA 0.01%, GT/WT/BT 2%
Description: Blood sample was added to a blood collection tube containing the anticoagulant K2EDTA and mixed for more than 5 minutes. Then, concentration of erythrocytes, leukocytes, neutrophils, eosinophils, basophils, lymphocytes, monocytes, platelets and hemoglobin and hematocrit were measured using a hematological analyzer.

tyrosinase, sequence (P14679 19-529, species assumed): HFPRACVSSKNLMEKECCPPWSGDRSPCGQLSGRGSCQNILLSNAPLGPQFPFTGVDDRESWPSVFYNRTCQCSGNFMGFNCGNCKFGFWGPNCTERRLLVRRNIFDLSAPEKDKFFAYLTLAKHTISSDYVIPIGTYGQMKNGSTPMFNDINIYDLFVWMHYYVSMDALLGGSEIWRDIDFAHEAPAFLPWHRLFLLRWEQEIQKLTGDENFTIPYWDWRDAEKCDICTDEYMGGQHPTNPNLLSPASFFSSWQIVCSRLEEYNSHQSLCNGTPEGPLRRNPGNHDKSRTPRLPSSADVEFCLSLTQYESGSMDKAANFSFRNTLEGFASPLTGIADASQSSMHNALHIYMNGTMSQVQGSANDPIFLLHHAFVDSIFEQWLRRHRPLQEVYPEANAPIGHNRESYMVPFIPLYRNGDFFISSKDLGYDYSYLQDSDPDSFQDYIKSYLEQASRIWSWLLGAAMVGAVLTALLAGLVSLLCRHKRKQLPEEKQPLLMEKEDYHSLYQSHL

In the case of `Oc1ccc(O)cc1` [HQ, Hydroquinone], the “decreases tyrosinase activity up to” value (tyrosinase) is given as “up to 90%”, the melanin index ([1]; week 0) is given as 724.8 ± 22.8^a AU and the melanin index ([1]; week 1) is given as 702.9 ± 24.4^a* AU. The melanin index ([1]; week 2) was 673.9 ± 26.1^c AU, the melanin index ([1]; week 3) was 636.7 ± 25.8^b AU and the melanin index ([1]; week 4) was 583.0 ± 28.0^b AU. For the same molecule, the “melanin index decreased by, as compared to the group C” value ([1]; week 4) was 17%, the “% of melanin pigment” value [2] was 9.5 ± 1.5^bc % and the Melanin pigment area [2] was 1163 ± 268 μm^2. The “melanin pigmented area decreased by, as compared to the control group” value [2] was 53%, the “improves hyperpigmentation in % of cases” value (hyperpigmentation) was 14-70% and the “% of Melanin pigment (Table 5, gp 100 protein)” value (gp100 protein) was 4.4 ± 0.8^c %. The “Melanin pigment (area; Table 5, gp 100 protein)” value (gp100 protein) was 469 ± 111 μm^2, the “area of gp 100 protein expression, decrease by, as compared to the group C” value (gp100 protein) was 68% and the Electron donating ability [3] was 93%. For the same molecule, the “% of S-100 Protein” value (S-100 protein) was 4.3 ± 0.5^ab %, the “S-100 Protein area” value (S-100 protein) was 511 ± 89 μm^2 and the “area of S-100 protein expression, decrease by, as compared to the control groups” value (S-100 protein) was 69%.

For `CC1=C(/C=C/C(C)=C/C=C/C(C)=C/C(=O)O)C(C)(C)CCC1` [RA, retinoic acid], the TEWL (UVB-irradiated skin [4]; week 1) was 24.16 ± 4.49^c** g/m^2/h, the TEWL (UVB-irradiated skin [4]; week 2) was 18.33 ± 4.85^b** g/m^2/h and the TEWL (UVB-irradiated skin [4]; week 3) was 18.76 ± 3.66^c g/m^2/h. For the same molecule, the “TEWL lower as compared to the control group” value (UVB-irradiated skin [4]; week 4) was 58%, the TEWL (UVB-irradiated skin [4]; week 4) was 16.90 ± 3.59^b g/m^2/h and the “expression level of MMP-3 mRNA lower as compared to the control group” value (MMP-3) was 77%. The Spleen absolute weight ([5]; RA 0.01%, GT/WT/BT 2%) was 0.136 ± 0.015^a g, the Spleen relative weight ([5]; RA 0.01%, GT/WT/BT 2%) was 0.475 ± 0.053^a g/100 g body weight and the Thymus absolute weight ([5]; RA 0.01%, GT/WT/BT 2%) was 0.019 ± 0.005^ab g. For the same molecule, the Thymus relative weight ([5]; RA 0.01%, GT/WT/BT 2%) was 0.067 ± 0.01^ab g/100 g body weight, the “organ weight relative to the normal group” value ([5]; p <0.05) was “significantly lower” and the “decreased wrinkle area as compared to the control group” value (UVB-induced wrinkles) was 49%. For the same molecule, the “water content of the skin” value (UVB-irradiated skin [6]; week 1) was 57.99 ± 7.31^b AU, the “water content of the skin” value (UVB-irradiated skin [6]; week 2) was 65.70 ± 5.75^c AU and the “water content of the skin” value (UVB-irradiated skin [6]; week 3) was 71.42 ± 5.82^cd AU. For the same molecule, the “water content higher as compared to the control group” value (UVB-irradiated skin [6]; week 4) was 207%, the “water content of the skin” value (UVB-irradiated skin [6]; week 4) was 88.59 ± 4.87^cd AU and the Food efficiency ratio ([7]; (Body weight gain/Food intake) × 100) was −0.94 ± 1.71^a %. For the same molecule, the Body weight gain ([7]; RA 0.01%, GT/WT/BT 2%) was −0.050 ± 0.09^a g/day, the Food intake ([7]; RA 0.01%, GT/WT/BT 2%) was 5.36 ± 1.06^a g/day and the Water intake ([7]; RA 0.01%, GT/WT/BT 2%) was 8.57 ± 1.75^b Ml/day. The “water intake as compared to the control group” value ([7]; p <0.05) was “remarkably higher water intake”, the skin erythema index (UVB-irradiated skin [8]; week 1) was 314.38 ± 17.33^c AU and the skin erythema index (UVB-irradiated skin [8]; week 2) was 301.10 ± 16.60^b AU. For the same molecule, the skin erythema index (UVB-irradiated skin [8]; week 3) was 294.43 ± 13.14^b AU, the “skin erythema index lower as compared to the control group” value (UVB-irradiated skin [8]; week 4) was 32% and the skin erythema index (UVB-irradiated skin [8]; week 4) was 282.64 ± 15.50^b AU. The Basophil (Hematological analysis) was 0.004 ± 0.04^a k/μl, the Eosinophil (Hematological analysis) was 0.050 ± 0.05^a k/μl and the HCT (Hematological analysis) was 43.442 ± 0.87^b %. The Hb (Hematological analysis) was 13.800 ± 0.18^b g/dl, the Lymphocyte (Hematological analysis) was 6.462 ± 0.34^c k/μl and the Monocyte (Hematological analysis) was 0.204 ± 0.06^b k/μl. For the same molecule, the Neutrophil (Hematological analysis) was 2.340 ± 0.39^cd k/μl, the Platelet (Hematological analysis) was 517.80 ± 16.44^b k/μl and the RBC (Hematological analysis) was 4.274 ± 0.17^b M/μl. For the same molecule, the WBC (Hematological analysis) was 9.114 ± 0.55^b k/μl.
